Experimental data taken from US20100069458A1, “COMBINATION OF LBH589 WITH OTHER THERAPEUTIC AGENTS FOR TREATING CANCER” (priority 2007, published 2010).
Like-named read-outs stand apart in the source and are kept apart here.

Tests used:
primary AML cells = test: Loss of viability, trypan blue uptake; type: cell-based; conditions: Homo sapiens
K562 cells [1] = test: Apoptosis; conditions: 50-100 nM
Description: FIG. 2 Analysis of dose effect relationship for AUY922 and LBH589 for the apoptotic effects after 48 hours of exposure was done according to the median effect of Chou and Talalay.

K562 cells [2] = test: Cell cycle status, propidium iodide flow cytometry; type: cell-based, human; conditions: for % of cells G0/G1 / % of cells G2/M / % of cells S: K562, 24 hours, mean ± S.E.M.
[3] = tested on: FLT-3, p-STAT5, AKT, CDK4, hsp70 levels in MV4-11 cells; test: hsp90 client protein levels; type: cell-based, human; conditions: AUY922 alone
U937 cells = test: Apoptosis; type: cell-based, human; conditions: 20 to 50 nM, dose-dependently
[4] = Loss of viability, trypan blue uptake; type: cell-based; conditions: human, Normal CD34+ cells
MV4-11 cells [5] = test: Apoptosis, annexin V flow cytometry; conditions: 20 to 50 nM, dose-dependently, FIG. 1
Description: Following this, the percentages of annexin V-positive apoptotic cells were determined by flow cytometry. Values represent the mean±S.E.M. of three experiments.

primary CML cells = test: Loss of viability, trypan blue uptake; type: cell-based; conditions: Homo sapiens, 48 h
[6] = tested on: Bcr-Abl, p-STAT5, p-CrkL, AKT levels in K562 cells; test: hsp90 client protein levels; type: cell-based, human; conditions: 50-100 nM of AUY922
MV4-11 cells [7] = test: Cell cycle status, propidium iodide flow cytometry; type: cell-based, human; conditions: for % of cells G0/G1 / % of cells G2/M / % of cells S: MV4-11, 24 hours, mean ± S.E.M.
[8] = tested on: hsp90 chaperone function in CML cells; conditions: previous studies, cited from earlier work

SMILES: CCNC(=O)c1noc(-c2cc(C(C)C)c(O)cc2O)c1-c1ccc(CN2CCOCC2)cc1 [AUY922, 5-(2,4-Dihydroxy-5-isopropyl-phenyl)-4-(4-morpholin-4-ylmethyl-phenyl)-isoxazole-3-carboxylic acid ethylamide]
- cytotoxicity at 0.02 µM (primary AML cells; 48 h, AML#2, 20 nmol/L AUY922, read-out: % non-viable cells): 54%
- cytotoxicity at 0.05 µM (primary AML cells; 48 h, AML#2, 50 nmol/L AUY922, read-out: % non-viable cells): 58.9%
- cytotoxicity at 0.02 µM (primary AML cells; 48 h, AML#4, 20 nmol/L AUY922, read-out: % non-viable cells): 43.2%
- cytotoxicity at 0.05 µM (primary AML cells; 48 h, AML#4, 50 nmol/L AUY922, read-out: % non-viable cells): 50%
- cytotoxicity at 0.02 µM (primary AML cells; 48 h, AML#5, 20 nmol/L AUY922, read-out: % non-viable cells): 32.1%
- cytotoxicity at 0.05 µM (primary AML cells; 48 h, AML#5, 50 nmol/L AUY922, read-out: % non-viable cells): 27.7%
- cytotoxicity at 0.02 µM (primary AML cells; 48 h, AML#6, 20 nmol/L AUY922, read-out: % non-viable cells): 11.9%
- cytotoxicity at 0.05 µM (primary AML cells; 48 h, AML#6, 50 nmol/L AUY922, read-out: % non-viable cells): 21.4%
- cytotoxicity at 0.02 µM (primary AML cells; 48 h, AML#7 CD34 enriched, 20 nmol/L AUY922, read-out: % non-viable cells): 70.1%
- cytotoxicity at 0.05 µM (primary AML cells; 48 h, AML#7 CD34 enriched, 50 nmol/L AUY922, read-out: % non-viable cells): 70.9%
- cytotoxicity at 0.02 µM (primary AML cells; AML1, 48 h, AML#1, 20 nmol/L AUY922, read-out: % non-viable cells): 38.8%
- cytotoxicity at 0.05 µM (primary AML cells; AML1, 48 h, AML#1, 50 nmol/L AUY922, read-out: % non-viable cells): 45.1%
- cytotoxicity at 0.02 µM (primary AML cells; AML3, 48 h, AML#3, 20 nmol/L AUY922, read-out: % non-viable cells): 40.1%
- cytotoxicity at 0.05 µM (primary AML cells; AML3, 48 h, AML#3, 50 nmol/L AUY922, read-out: % non-viable cells): 42.7%
- induced apoptosis, % of cells (K562 cells [1]): 30-50%
- % of cells G0/G1 (K562 cells [2]; 20 nM): 31.04 ± 3.11%
- % of cells G2/M (K562 cells [2]; 20 nM): 8.54 ± 1.16%
- % of cells S (K562 cells [2]; 20 nM): 60.41 ± 2.01%
- % of cells G0/G1 (K562 cells [2]; 50 nM): 61.42 ± 5.30%
- % of cells G2/M (K562 cells [2]; 50 nM): 4.43 ± 2.78%
- % of cells S (K562 cells [2]; 50 nM): 34.14 ± 5.01%
- % of cells G0/G1 (K562 cells [2]; 100 nM): 58.30 ± 2.87%
- % of cells G2/M (K562 cells [2]; 100 nM): 21.73 ± 2.67%
- % of cells S (K562 cells [2]; 100 nM): 19.97 ± 0.31%
- % of cells G0/G1 (K562 cells [2]; 250 nM): 58.10 ± 4.47%
- % of cells G2/M (K562 cells [2]; 250 nM): 21.38 ± 3.07%
- % of cells S (K562 cells [2]; 250 nM): 20.47 ± 1.54%
- accumulation in G1 and G2/M phases, decline in S phase (K562 cells [2]; K562 cells): dose-dependently induced accumulation
- client protein levels [3]: depletion of FLT-3, p-STAT5, AKT, and CDK4 levels
- hsp70 levels [3]: induction of hsp70 levels
- induced apoptosis, % of cells (U937 cells): 40-60%
- cytotoxicity at 48 h, 20 nmol/L ([4]; 20 nmol/L AUY922, read-out: % non-viable cells): 30.8%
- cytotoxicity at 48 h, 50 nmol/L ([4]; 50 nmol/L AUY922, read-out: % non-viable cells): 31.6%
- induced apoptosis, % of cells (MV4-11 cells [5]): 40-60%
- cytotoxicity at 0.02 µM (primary CML cells; CML#1, 20 nmol/L AUY922, read-out: % non-viable cells): 29.1%
- cytotoxicity at 0.05 µM (primary CML cells; CML#1, 50 nmol/L AUY922, read-out: % non-viable cells): 33.6%
- cytotoxicity at 0.02 µM (primary CML cells; CML#2, 20 nmol/L AUY922, read-out: % non-viable cells): 9.6%
- cytotoxicity at 0.05 µM (primary CML cells; CML#2, 50 nmol/L AUY922, read-out: % non-viable cells): 13.9%
- cytotoxicity at 0.02 µM (primary CML cells; CML#3, 20 nmol/L AUY922, read-out: % non-viable cells): 21.1%
- cytotoxicity at 0.05 µM (primary CML cells; CML#3, 50 nmol/L AUY922, read-out: % non-viable cells): 25.3%
- cytotoxicity at 0.02 µM (primary CML cells; CML#4, 20 nmol/L AUY922, read-out: % non-viable cells): 30.5%
- cytotoxicity at 0.05 µM (primary CML cells; CML#4, 50 nmol/L AUY922, read-out: % non-viable cells): 32.8%
- client protein levels [6]: depleted Bcr-Abl, p-STAT, p-CrkL and AKT levels
- % of cells G0/G1 (MV4-11 cells [7]; 5 nM): 62.23 ± 0.33%
- % of cells G2/M (MV4-11 cells [7]; 5 nM): 6.02 ± 0.74%
- % of cells S (MV4-11 cells [7]; 5 nM): 31.74 ± 0.42%
- % of cells G0/G1 (MV4-11 cells [7]; 10 nM): 63.54 ± 1.20%
- % of cells G2/M (MV4-11 cells [7]; 10 nM): 6.30 ± 0.92%
- % of cells S (MV4-11 cells [7]; 10 nM): 30.16 ± 0.39%
- % of cells G0/G1 (MV4-11 cells [7]; 20 nM): 85.71 ± 2.14%
- % of cells G2/M (MV4-11 cells [7]; 20 nM): 5.30 ± 0.71%
- % of cells S (MV4-11 cells [7]; 20 nM): 8.98 ± 2.41%
- % of cells G0/G1 (MV4-11 cells [7]; 50 nM): 79.57 ± 1.15%
- % of cells G2/M (MV4-11 cells [7]; 50 nM): 11.96 ± 1.26%
- % of cells S (MV4-11 cells [7]; 50 nM): 8.47 ± 2.30%
- accumulation in G1 and G2/M phases, decline in S phase (MV4-11 cells [7]; MV4-11 cells): dose-dependently induced accumulation

SMILES: Cc1[nH]c2ccccc2c1CCNCc1ccc(/C=C/C(=O)NO)cc1 [LBH589, N-hydroxy-3-[4-[[[2-(2-methyl-1H-indol-3-yl)-ethyl]-amino]methyl]phenyl]-2E-2-propenamide]
- cytotoxicity at 0.05 µM (primary AML cells; 48 h, AML#2, 50 nmol/L LBH589, read-out: % non-viable cells): 54.7%
- cytotoxicity at 0.05 µM (primary AML cells; 48 h, AML#4, 50 nmol/L LBH589, read-out: % non-viable cells): 53.8%
- cytotoxicity at 0.05 µM (primary AML cells; 48 h, AML#5, 50 nmol/L LBH589, read-out: % non-viable cells): 61.8%
- cytotoxicity at 0.05 µM (primary AML cells; 48 h, AML#6, 50 nmol/L LBH589, read-out: % non-viable cells): 17.8%
- cytotoxicity at 0.05 µM (primary AML cells; 48 h, AML#7 CD34 enriched, 50 nmol/L LBH589, read-out: % non-viable cells): 56.7%
- cytotoxicity at 0.05 µM (primary AML cells; AML1, 48 h, AML#1, 50 nmol/L LBH589, read-out: % non-viable cells): 80.7%
- cytotoxicity at 0.05 µM (primary AML cells; AML3, 48 h, AML#3, 50 nmol/L LBH589, read-out: % non-viable cells): 46.3%
- cytotoxicity at 48 h, 50 nmol/L ([4]; 50 nmol/L LBH589, read-out: % non-viable cells): 23.3%
- cytotoxicity at 0.05 µM (primary CML cells; CML#1, 50 nmol/L LBH589, read-out: % non-viable cells): 43.3%
- cytotoxicity at 0.05 µM (primary CML cells; CML#2, 50 nmol/L LBH589, read-out: % non-viable cells): 21.4%
- cytotoxicity at 0.05 µM (primary CML cells; CML#3, 50 nmol/L LBH589, read-out: % non-viable cells): 47.8%
- cytotoxicity at 0.05 µM (primary CML cells; CML#4, 50 nmol/L LBH589, read-out: % non-viable cells): 37.6%
- client protein levels ([8]; CML cells): depletion of unmutated or mutant forms of Bcr-Abl, as well as of c-Raf and AKT
- hsp90 acetylation and chaperone function ([8]; by inhibiting HDAC 6): induces acetylation and inhibition of hsp90 chaperone function
